Measurements reported in US20090137572A1, “2-substituted-4-heteroaryl-pyrimidines useful for the treatment of proliferative disorders” (priority 2004, published 2009).

Legend:
[1] = target: CDK9/cyclin T1 (Homo sapiens, UniProt P50750); assay: CDK 9 assay (CTD peptide substrate); format: biochemical; conditions: read-out: Kinase Inhibition pIC50 CDK9-cyclin T1 (converted)
Outline: (§1)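 Radiometric filter-binding read-out: 32P transferred from 100 μM [γ-32P]ATP to biotinyl-(YSPTSPS)4 CTD peptide. Enzyme 0.5-2 μg recombinant human complex; 20 mM MOPS pH 7.2, 15 mM MgCl2, vanadate, DTT; 45 min, 30° C; avidin bound, P81 plate washed, counted.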

[2] = target: CDK1-cyclin B (Homo sapiens, UniProt P06493); assay: Kinase assay (radioactive phosphate incorporation), CDK1-cyclin B; format: biochemical; conditions: read-out: Kinase Inhibition pIC50 CDK1-cyclin B (converted)
Description: (§2) Kinase assays. The compounds of the invention above were investigated for their ability to inhibit the enzymatic activity of various protein kinases (Table 2). This was achieved by measurement of incorporation of radioactive phosphate from ATP into appropriate polypeptide substrates. Recombinant protein kinases and kinase complexes were produced or obtained commercially. Assays were performed using 96-well plates and appropriate assay buffers (typically 25 mM β-glycerophosphate, 20 mM MOPS, 5 mM EGTA, 1 mM DTT, 1 mM […], pH 7.4), into which were added 2-4 μg of active enzyme with appropriate substrates. The reactions were initiated by addition of Mg/ATP mix (15 mM MgCl2+100 μM ATP with 30-50 kBq per well of [γ-^32P]-ATP) and mixtures incubated as required at 30° C. Reactions were stopped on ice, followed by filtration through p81 filterplates or GF/C filterplates (Whatman Polyfiltronics, Kent, UK). After washing 3 times with 75 mM aq orthophosphoric acid, plates were dried, scintillant added and incorporated radioactivity measured in a scintillation counter (TopCount, Packard Instruments, Pangbourne, Berks, UK). Compounds for kinase assay were made up as 10 mM stocks in DMSO and diluted into 10% DMSO in assay buffer.

[3] = target: CDK7/cyclin H (Homo sapiens, UniProt P50613); assay: CDK 7 assay (CTD peptide substrate); format: biochemical; conditions: read-out: Kinase Inhibition pIC50 CDK7-cyclin H (converted)
Outline: as §1

[4] = target: CDK4-cyclin D1 (Homo sapiens, UniProt P11802); assay: Kinase assay (radioactive phosphate incorporation), CDK4-cyclin D1; format: biochemical; conditions: read-out: Kinase Inhibition pIC50 CDK4-cyclin D1 (converted)
Description: as §2

[5] = target: GSK3b (Homo sapiens, UniProt P49841); assay: Kinase assay (radioactive phosphate incorporation), GSK-3b; format: biochemical; conditions: read-out: Kinase Inhibition pIC50 GSK-3b (converted)
Description: as §2

[6] = target: CDK2-cycline E (Homo sapiens, UniProt P24941); assay: Kinase assay (radioactive phosphate incorporation), CDK2-cyclin E; format: biochemical; conditions: read-out: Kinase Inhibition pIC50 CDK2-cycline E (converted)
Outline: (§3)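 Inhibition was measured as transfer of radiolabelled phosphate from [γ-32P]-ATP (100 μM ATP, 15 mM MgCl2) onto polypeptide substrates by recombinant kinases or kinase complexes. Reactions ran at 30° C in MOPS/β-glycerophosphate buffer, pH 7.4, were stopped on ice and filtered before scintillation counting.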

[7] = target: T1, Flt3 (FMS-like tyrosine kinase-3) (Homo sapiens, UniProt P36888); assay: Kinase assay (radioactive phosphate incorporation), Flt3; format: biochemical; conditions: pIC50 is -log(IC50, M), read-out: Kinase Inhibition pIC50 Flt3 (converted)
T1 sequence (P36888 27-993): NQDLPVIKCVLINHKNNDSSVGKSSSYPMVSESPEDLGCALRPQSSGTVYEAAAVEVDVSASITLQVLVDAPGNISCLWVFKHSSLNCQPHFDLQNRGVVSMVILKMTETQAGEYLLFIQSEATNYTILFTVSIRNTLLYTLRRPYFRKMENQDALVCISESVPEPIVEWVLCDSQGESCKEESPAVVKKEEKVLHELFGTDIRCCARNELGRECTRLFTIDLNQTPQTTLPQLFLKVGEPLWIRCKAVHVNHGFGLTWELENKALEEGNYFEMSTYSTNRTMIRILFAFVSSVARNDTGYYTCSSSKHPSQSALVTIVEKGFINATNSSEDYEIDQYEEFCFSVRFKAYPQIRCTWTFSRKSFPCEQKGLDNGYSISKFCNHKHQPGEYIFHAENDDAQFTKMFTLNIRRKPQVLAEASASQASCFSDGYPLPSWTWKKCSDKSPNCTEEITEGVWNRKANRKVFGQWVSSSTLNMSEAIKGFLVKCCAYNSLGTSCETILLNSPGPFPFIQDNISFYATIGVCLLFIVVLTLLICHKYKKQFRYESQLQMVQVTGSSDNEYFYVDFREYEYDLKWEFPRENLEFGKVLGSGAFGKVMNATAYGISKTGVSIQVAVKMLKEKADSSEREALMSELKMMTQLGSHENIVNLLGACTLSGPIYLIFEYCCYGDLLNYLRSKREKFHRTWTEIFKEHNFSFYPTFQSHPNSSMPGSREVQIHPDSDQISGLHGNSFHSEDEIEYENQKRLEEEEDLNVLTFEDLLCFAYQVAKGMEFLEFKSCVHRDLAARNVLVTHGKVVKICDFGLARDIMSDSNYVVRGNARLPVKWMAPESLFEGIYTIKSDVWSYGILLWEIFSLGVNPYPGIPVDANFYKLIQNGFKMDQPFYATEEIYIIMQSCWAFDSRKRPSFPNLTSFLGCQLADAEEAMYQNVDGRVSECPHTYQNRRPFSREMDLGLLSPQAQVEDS
Outline: as §3

[8] = target: T2, Aurora A kinase (Homo sapiens, UniProt O14965); assay: Aurora-A (human) kinase assay (Kemptide substrate); format: biochemical; conditions: pIC50 is -log(IC50, M); 15 μM ATP; read-out: Kinase Inhibition pIC50 Aurora A kinase (converted)
T2 construct: purchased
T2 sequence (O14965 1-403): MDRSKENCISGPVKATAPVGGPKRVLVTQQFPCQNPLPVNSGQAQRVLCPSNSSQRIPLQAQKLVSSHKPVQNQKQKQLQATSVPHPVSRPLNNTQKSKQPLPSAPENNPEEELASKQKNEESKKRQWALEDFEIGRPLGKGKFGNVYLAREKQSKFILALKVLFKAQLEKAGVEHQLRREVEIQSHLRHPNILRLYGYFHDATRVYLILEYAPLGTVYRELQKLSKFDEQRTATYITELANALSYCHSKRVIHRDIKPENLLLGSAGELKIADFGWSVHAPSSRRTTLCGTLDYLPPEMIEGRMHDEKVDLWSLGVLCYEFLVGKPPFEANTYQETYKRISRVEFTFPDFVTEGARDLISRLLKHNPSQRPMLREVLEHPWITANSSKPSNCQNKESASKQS
Outline: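 Kemptide (LRRASLG, 200 μM) phosphorylation by 5-10 ng commercial aurora-A measured as [γ-33P] incorporation at 15 μM ATP with 10 mM Mg acetate, pH 7.0 MOPS buffer. Reaction ran 40 min at room temperature; acid-stopped, captured on P81 filters, scintillation read.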

[9] = target: CDK2-cyclin A (Homo sapiens, UniProt P24941); assay: Kinase assay (radioactive phosphate incorporation), CDK2-cyclin A; format: biochemical; conditions: read-out: Kinase Inhibition pIC50 CDK2-cyclin A (converted)
Description: as §2

Sequence of GSK3b (P49841 whole entry, species assumed): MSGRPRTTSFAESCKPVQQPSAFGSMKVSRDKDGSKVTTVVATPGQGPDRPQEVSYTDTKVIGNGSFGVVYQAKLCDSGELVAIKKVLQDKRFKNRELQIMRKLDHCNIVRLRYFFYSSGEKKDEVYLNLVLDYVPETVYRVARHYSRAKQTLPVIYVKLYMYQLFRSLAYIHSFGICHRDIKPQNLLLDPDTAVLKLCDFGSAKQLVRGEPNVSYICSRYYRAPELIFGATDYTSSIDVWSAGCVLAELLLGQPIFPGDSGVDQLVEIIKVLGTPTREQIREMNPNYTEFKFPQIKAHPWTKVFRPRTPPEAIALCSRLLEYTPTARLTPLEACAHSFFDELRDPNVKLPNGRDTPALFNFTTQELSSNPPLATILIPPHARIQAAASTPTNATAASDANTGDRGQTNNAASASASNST
Sequence of CDK4-cyclin D1 (P11802 whole entry): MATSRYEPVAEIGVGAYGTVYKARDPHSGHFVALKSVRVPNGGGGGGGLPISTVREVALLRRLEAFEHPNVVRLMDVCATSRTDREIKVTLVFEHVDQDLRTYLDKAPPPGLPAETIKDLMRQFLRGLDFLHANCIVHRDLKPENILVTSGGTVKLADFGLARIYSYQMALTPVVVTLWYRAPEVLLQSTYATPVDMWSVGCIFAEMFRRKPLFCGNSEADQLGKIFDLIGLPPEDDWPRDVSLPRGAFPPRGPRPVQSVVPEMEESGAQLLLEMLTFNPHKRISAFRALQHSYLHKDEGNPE
Sequence of CDK4-cyclin D1 (P24385 whole entry partner): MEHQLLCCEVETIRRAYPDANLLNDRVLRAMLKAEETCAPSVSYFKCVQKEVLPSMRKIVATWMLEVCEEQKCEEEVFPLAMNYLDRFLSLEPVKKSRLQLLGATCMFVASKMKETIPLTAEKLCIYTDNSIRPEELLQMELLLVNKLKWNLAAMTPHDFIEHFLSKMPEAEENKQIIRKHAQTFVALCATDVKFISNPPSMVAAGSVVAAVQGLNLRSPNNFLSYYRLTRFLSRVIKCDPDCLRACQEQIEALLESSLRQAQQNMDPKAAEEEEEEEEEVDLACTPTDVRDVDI
Sequence of CDK7/cyclin H (P50613 whole entry): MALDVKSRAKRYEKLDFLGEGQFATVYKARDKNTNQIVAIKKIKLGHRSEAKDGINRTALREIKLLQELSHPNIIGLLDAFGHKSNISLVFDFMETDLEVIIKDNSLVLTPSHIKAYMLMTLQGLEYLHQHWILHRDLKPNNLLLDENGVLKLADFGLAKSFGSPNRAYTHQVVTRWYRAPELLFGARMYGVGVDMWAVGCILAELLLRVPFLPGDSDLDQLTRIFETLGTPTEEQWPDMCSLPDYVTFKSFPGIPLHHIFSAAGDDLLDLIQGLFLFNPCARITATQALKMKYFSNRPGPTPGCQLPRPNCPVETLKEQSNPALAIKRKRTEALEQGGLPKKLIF
Sequence of CDK7/cyclin H (P51946 whole entry partner): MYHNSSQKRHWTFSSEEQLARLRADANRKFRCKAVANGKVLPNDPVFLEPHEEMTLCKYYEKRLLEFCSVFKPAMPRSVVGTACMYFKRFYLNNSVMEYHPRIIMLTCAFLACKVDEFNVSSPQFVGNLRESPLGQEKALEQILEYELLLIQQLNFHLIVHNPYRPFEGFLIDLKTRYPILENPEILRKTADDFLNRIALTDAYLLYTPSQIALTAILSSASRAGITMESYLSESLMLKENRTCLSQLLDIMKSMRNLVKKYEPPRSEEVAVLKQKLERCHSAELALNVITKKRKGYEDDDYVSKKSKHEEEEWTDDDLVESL
Sequence of CDK1-cyclin B (P06493 whole entry): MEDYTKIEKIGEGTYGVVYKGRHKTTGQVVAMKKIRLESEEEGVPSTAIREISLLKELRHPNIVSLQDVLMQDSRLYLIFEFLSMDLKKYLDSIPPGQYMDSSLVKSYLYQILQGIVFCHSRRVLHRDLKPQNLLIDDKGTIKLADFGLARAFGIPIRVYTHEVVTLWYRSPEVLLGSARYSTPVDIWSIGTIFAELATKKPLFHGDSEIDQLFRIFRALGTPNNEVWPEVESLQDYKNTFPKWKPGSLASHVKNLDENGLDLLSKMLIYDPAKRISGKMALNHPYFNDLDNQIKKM
Sequence of CDK1-cyclin B (P14635 whole entry partner): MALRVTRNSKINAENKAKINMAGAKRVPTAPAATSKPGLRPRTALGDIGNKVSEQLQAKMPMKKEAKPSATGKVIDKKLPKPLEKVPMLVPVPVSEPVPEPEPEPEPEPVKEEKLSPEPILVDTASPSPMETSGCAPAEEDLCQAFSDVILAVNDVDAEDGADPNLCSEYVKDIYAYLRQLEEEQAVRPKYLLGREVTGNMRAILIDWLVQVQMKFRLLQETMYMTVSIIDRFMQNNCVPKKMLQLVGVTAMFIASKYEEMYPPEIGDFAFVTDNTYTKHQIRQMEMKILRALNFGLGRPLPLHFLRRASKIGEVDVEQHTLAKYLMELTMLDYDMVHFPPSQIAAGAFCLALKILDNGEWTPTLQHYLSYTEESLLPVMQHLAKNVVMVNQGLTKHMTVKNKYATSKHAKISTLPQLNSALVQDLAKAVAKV
Sequence of CDK9/cyclin T1 (P50750 whole entry): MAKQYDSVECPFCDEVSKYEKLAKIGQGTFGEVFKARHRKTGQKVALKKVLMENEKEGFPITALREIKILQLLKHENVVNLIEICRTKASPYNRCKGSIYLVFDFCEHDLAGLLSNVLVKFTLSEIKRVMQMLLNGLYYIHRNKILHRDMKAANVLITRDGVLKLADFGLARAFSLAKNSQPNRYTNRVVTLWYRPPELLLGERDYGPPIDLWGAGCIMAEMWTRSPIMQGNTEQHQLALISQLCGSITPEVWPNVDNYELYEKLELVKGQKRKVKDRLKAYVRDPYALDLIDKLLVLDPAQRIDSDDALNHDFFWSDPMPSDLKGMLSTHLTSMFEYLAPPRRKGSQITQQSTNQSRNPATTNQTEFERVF
Sequence of CDK9/cyclin T1 (O60563 whole entry partner): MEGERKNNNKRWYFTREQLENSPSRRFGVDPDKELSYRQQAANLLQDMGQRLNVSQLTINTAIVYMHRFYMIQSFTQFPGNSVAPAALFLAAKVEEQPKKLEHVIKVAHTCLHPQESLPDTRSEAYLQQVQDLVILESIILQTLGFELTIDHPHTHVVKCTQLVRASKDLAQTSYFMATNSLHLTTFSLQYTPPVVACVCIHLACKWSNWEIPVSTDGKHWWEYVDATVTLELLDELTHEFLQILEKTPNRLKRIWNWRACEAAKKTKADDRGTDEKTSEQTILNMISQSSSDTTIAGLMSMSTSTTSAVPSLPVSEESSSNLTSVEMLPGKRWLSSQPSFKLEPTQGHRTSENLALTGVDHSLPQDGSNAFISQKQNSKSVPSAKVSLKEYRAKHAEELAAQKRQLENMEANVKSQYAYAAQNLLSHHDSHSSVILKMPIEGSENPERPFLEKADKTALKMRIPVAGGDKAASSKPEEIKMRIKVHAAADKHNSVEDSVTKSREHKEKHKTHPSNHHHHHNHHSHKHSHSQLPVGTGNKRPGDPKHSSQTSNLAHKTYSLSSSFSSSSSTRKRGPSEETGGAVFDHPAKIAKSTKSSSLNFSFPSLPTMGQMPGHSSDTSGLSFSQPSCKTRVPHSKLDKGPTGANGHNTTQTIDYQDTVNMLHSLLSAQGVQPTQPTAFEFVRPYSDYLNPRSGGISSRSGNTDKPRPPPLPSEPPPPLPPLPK

IC50 [1] | IC50 [2] | IC50 [3] | IC50 [4] | IC50 [5] | IC50 [6] | IC50 [7] | IC50 [8] | melting point | IC50 [9] | SMILES
316 nM | 1260 nM | 794 nM | 316 nM | 631 nM | 1580 nM | – | – | – | – | Cc1ccc(Nc2nccc(-c3sc(NC(C)(C)C)nc3C)n2)cc1[N+](=O)[O-] [Compound 2, [4-(2-tert-Butylamino-4-methyl-thiazol-5-yl)-pyrimidin-2-yl]-(4-methyl-3-nitro-phenyl)-amine]
– | – | 2000 nM | 3160 nM | 5010 nM | – | 20 nM | 20 nM | – | – | CNc1nc(C)c(-c2ccnc(Nc3cccc(N4CCN(C(C)=O)CC4)c3)n2)s1 [Compound 3, 1-(4-{3-[4-(4-Methyl-2-methylamino-thiazol-5-yl)-pyrimidin-2-ylamino]-phenyl}-piperazin-1-yl)-ethanone]
20 nM | 1000 nM | 794 nM | 2000 nM | 794 nM | – | – | 3.98 nM | – | – | CNc1nc(C)c(-c2ccnc(Nc3cc(OC)c(OC)c(OC)c3)n2)s1 [Compound 23, [4-(4-Methyl-2-methylamino-thiazol-5-yl)-pyrimidin-2-yl]-(3,4,5-trimethoxy-phenyl)-amine]
1000 nM | 12600 nM | 5010 nM | – | 3160 nM | – | 200 nM | – | – | – | CC(=O)N1CCN(c2cccc(Nc3nccc(-c4sc(C)nc4C)n3)c2)CC1 [Compound 46, 1-(4-{3-[4-(2,4-Dimethyl-thiazol-5-yl)-pyrimidin-2-ylamino]-phenyl}-piperazin-1-yl)-ethanone]
– | 1580 nM | – | 631 nM | 631 nM | 631 nM | – | 100 nM | – | – | Cc1nc(NC(C)(C)C)sc1-c1ccnc(Nc2cccc([N+](=O)[O-])c2)n1 [Compound 51, [4-(2-tert-Butylamino-4-methyl-thiazol-5-yl)-pyrimidin-2-yl]-(3-nitro-phenyl)-amine]
39.8 nM | – | 794 nM | 251 nM | 631 nM | 100 nM | 251 nM | 25.1 nM | 205 to 206 °C | – | CNc1nc(C)c(-c2ccnc(Nc3cccc(S(=O)(=O)NCCOC)c3)n2)s1 [Compound 54, N-(2-Methoxy-ethyl)-3-[4-(4-methyl-2-methylamino-thiazol-5-yl)-pyrimidin-2-ylamino]-benzenesulfonamide]
6310 nM | – | – | – | – | 79.4 nM | – | – | – | 3160 nM | CCOC(=O)Cc1cccc(NS(=O)(=O)c2ccc(Nc3nccc(-c4sc(NC)nc4C)n3)cc2)c1 [Compound 62, (3-{4-[4-(4-Methyl-2-methylamino-thiazol-5-yl)-pyrimidin-2-ylamino]-benzenesulfonylamino}-phenyl)-acetic acid ethyl ester]
– | – | – | – | – | 63.1 nM | – | 316 nM | – | 50.1 nM | CCNS(=O)(=O)c1ccc(Nc2nccc(-c3sc(C)nc3C)n2)cc1 [Compound 66, 4-[4-(2,4-Dimethyl-thiazol-5-yl)-pyrimidin-2-ylamino]-N-ethyl-benzenesulfonamide]
100 nM | – | – | 158 nM | 5010 nM | – | – | 1000 nM | – | – | CCNc1nc(C)c(-c2ccnc(Nc3cccc(S(=O)(=O)NC(C)C)c3)n2)s1 [Compound 70, 3-[4-(2-Ethylamino-4-methyl-thiazol-5-yl)-pyrimidin-2-ylamino]-N-isopropyl-benzenesulfonamide]
398 nM | – | – | 7940 nM | – | 631 nM | – | – | – | 3160 nM | CCNc1nc(C)c(-c2ccnc(Nc3ccc(S(=O)(=O)NCc4ccccc4)cc3)n2)s1 [Compound 71, N-Benzyl-4-[4-(2-ethylamino-4-methyl-thiazol-5-yl)-pyrimidin-2-ylamino]-benzenesulfonamide]
6310 nM | 794 nM | – | – | – | 158 nM | – | 2510 nM | – | 1260 nM | CNc1nc(C)c(-c2ccnc(Nc3ccc(S(=O)(=O)NCc4ccccc4)cc3)n2)s1 [Compound 72, N-Benzyl-4-[4-(4-methyl-2-methylamino-thiazol-5-yl)-pyrimidin-2-ylamino]-benzenesulfonamide]
– | – | – | – | – | 398 nM | – | 126 nM | – | 2000 nM | Cc1nc(C)c(-c2ccnc(Nc3ccc(S(=O)(=O)NCc4ccccc4)cc3)n2)s1 [Compound 74, N-Benzyl-4-[4-(2,4-dimethyl-thiazol-5-yl)-pyrimidin-2-ylamino]-benzenesulfonamide]
398 nM | – | 3980 nM | – | 3160 nM | 3980 nM | – | 3160 nM | 81 to 83 °C | – | Cc1nc(C)c(-c2ccnc(Nc3ccc(C)c(S(=O)(=O)N4CCOCC4)c3)n2)s1 [Compound 82, [4-(2,4-Dimethyl-thiazol-5-yl)-pyrimidin-2-yl]-[4-methyl-3-(morpholine-4-sulfonyl)-phenyl]-amine]
5010 nM | 3160 nM | 3980 nM | 3980 nM | 7940 nM | 1260 nM | 316 nM | 126 nM | – | – | CC(=O)NCc1cccc(Nc2nccc(-c3sc(-c4cccnc4)nc3C)n2)c1 [Compound 101, N-{3-[4-(4-Methyl-2-pyridin-3-yl-thiazol-5-yl)-pyrimidin-2-ylamino]-benzyl}-acetamide]
